From PubChem BioAssay (NCI) come the findings set out here.

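Compound exposure: 48 hours, 5 concentrations, 96-well plates. Abbreviation: GI50, concentration required for 50% inhibition of growth. TGI: total growth inhibition.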

This assay has as its system MDA-MB-468 breast. Nature of the assay: inhibition of tumour cell growth, NCI panel, 48 h.
Turning to `C/C=C(\C)C(=O)N[C@H]1CC[C@]2(C)C3CC[C@@]4(C)C(CC[C@@H]4C(C)N(C)C)C3CCC2[C@H]1OC(C)=O` (stereo partly specified), the GI50 is 1170 nM and the TGI is 2630 nM.
For `CCN(CC)CCCC(C)Nc1cnc(C(=O)Nc2ccc(Cl)c3cccnc23)cn1` (stereo unspecified), in that order: 1570 nM and 3490 nM.
For `Cn1cc(-c2nc(-c3c[nH]c4ncccc34)cs2)c2cc(F)ccc21`, in that order: 69 nM and 725 nM.
Turning to `CC(C)(C)NC(C1=CC(C)(C)c2ccccc2C1=O)c1ccccc1` (stereo unspecified), the GI50 is 245 nM and the TGI was found to be 1660 nM.
Regarding `Cn1ccnc1C(=O)/C=C/c1ccc(C(=O)Nc2ccc(Cl)cc2)cc1`, the GI50 is 793 nM and the TGI came to 2800 nM.
The like results for `C1=Cc2ccccc2Nc2ccccc21` were, in that order, 4360 nM and 33700 nM.
In the case of `O=C1NN(c2ccc(C(=O)O)cc2)C(=O)/C1=C\c1ccc([N+](=O)[O-])o1`, the GI50 was 22500 nM and the TGI is 57400 nM.
The like results for `COc1cccc(C2c3cc4c(cc3OC(C)(O)C2C)OCO4)c1O` (stereo unspecified) were, in that order, 4830 nM and 56600 nM.
On to `COc1cc(C(=O)c2ccc3c(c2)OCO3)cc(OC)c1OC`, for which the GI50 is 586 nM and the TGI is 3320 nM.
For `COc1ccc2c(c1)C(=O)/C(=C/c1cccc(OCC(=O)Nc3nc4c(s3)CCCC4)c1)O2`, in that order: 188 nM and 353 nM.
As to `C=C1C(=O)O[C@H]2[C@H]1CC/C(COC(=O)CCCCC(=O)OC/C1=C/CC[C@@]3(C)O[C@H]3[C@H]3OC(=O)C(=C)[C@@H]3CC1)=C\CC[C@@]1(C)O[C@@H]21`, the GI50 was 1660 nM and the TGI was 5110 nM.
For `Cc1nn(-c2nc3ccccc3s2)c(C)c1Oc1ccccc1O`, in that order: 1130 nM and 27400 nM.
The like results for `COc1cc2nc(-c3cnc(N(C)C)nc3)nc(NC3CCN(Cc4ccccc4)CC3)c2cc1OC` were, in that order, 1380 nM and 2960 nM.
The like results for `Oc1ccc2cc(Br)ccc2c1-c1c(O)ccc2cc(Br)ccc12` were, in that order, 3620 nM and 11700 nM.
Consider `COc1ccc(N(CC(=O)NCCC[Te]c2ccccc2)C(=O)c2ccccc2)cc1`, for which the GI50 was 4240 nM and the TGI came out at 17600 nM.
The like results for `O=C1CC(c2ccc(N3CCOCC3)cc2)(c2ccsc2)NC(=O)C1Sc1ccccc1Cl` (stereo unspecified) were, in that order, 86700 nM and over 100000 nM.
Consider `O=[N+]([O-])c1ccc(Br)c([N+](=O)[O-])c1`, for which the GI50 is 1670 nM and the TGI was 3270 nM.
For `CCC(C)(C)C(=O)O[C@H]1C[C@@H](C)C=C2C=C[C@H](C)[C@H](CC[C@@H]3C[C@@H](O)CC(=O)O3)[C@H]21`, in that order: 1620 nM and 6680 nM.
The like results for `CC1=CC(=NC(=O)CBr)C=C/C1=N\S(=O)(=O)c1ccccc1` were, in that order, 2410 nM and 8010 nM.
In the case of `Cn1cncc1[C@@](N)(c1ccc(Cl)cc1)c1ccc2c(c1)c(-c1cccc(Cl)c1)cc(=O)n2C`, the GI50 is 1690 nM and the TGI amounted to 6760 nM.
For `CCOc1c(Br)cc(C2C(C(=O)OC)=CN(C)C=C2C(=O)OC)cc1OC`, in that order: 37700 nM and over 100000 nM.
As for `C[C@@H]1CN(C(=O)c2ccc(NC(=O)c3cc(O[C@H](C)c4c(Cl)ccc(F)c4Cl)c(N)nn3)cc2)C[C@H](C)N1`, the GI50 is 2510 nM and the TGI stood at 9870 nM.
Regarding `COC(=O)Nc1nc2ccc(Oc3ccc(NC(=O)Nc4cccc(C(=O)O)c4)cc3)cc2[nH]1`, the GI50 was 998 nM and the TGI was 12800 nM.
The like results for `CN(C)c1ccc(N2Cc3ccccc3OC3=C2C(=O)c2c(O)ccc(O)c2C3=O)cn1` were, in that order, 169 nM and 425 nM.
The like results for `COc1cc(-c2nc(Nc3nc4ccccc4[nH]3)nc(N)c2C#N)cc(OC)c1OC` were, in that order, 1390 nM and 26600 nM.
Regarding `CC[C@H](C)[C@H]1NC(=O)[C@@H](N[C@](C)(O)[C@@H](N)CC(C)C)[C@@H](C)OC(=O)[C@H](Cc2ccc(OC)cc2)N(C)C(=O)[C@@H]2CCCN2C(=O)[C@H](CC(C)C)NC(=O)[C@@H](C)C(=O)[C@H](C(C)C)OC(=O)C[C@@H]1O`, the GI50 was 21.7 nM and the TGI stood at 261 nM.
The like results for `CC1(C)CC[C@]23CC[C@]4(C)[C@H](CC[C@@H]5[C@@]6(C)CCCN(CO)C(C)(C)[C@@H]6CC[C@]54C)[C@H]2[C@H]1OC3` were, in that order, 1810 nM and 4180 nM.
With `CCOc1cccc(/C=N/NC(=O)c2ccc(Nc3ccnc(C(F)(F)F)c3)cc2)c1O`, the GI50 is 349 nM and the TGI amounted to 2960 nM.
With `O=c1c2cccc(Cl)c2sc2c(NCCCNCCO)nc3ccccc3c12`, the GI50 is 1190 nM and the TGI is 2980 nM.
On to `Cn1nccc1Nc1nccc(-c2cc3c(s2)C(C)(C)N(CCN2CCOCC2)C3=O)n1`, for which the GI50 is 6100 nM and the TGI is over 83500 nM.
In the case of `COc1ccc(-c2[nH]c3ccccc3c2C=C(C#N)C#N)cc1`, the GI50 is 557 nM and the TGI is over 100000 nM.
For the compound `COc1cc(NS(C)(=O)=O)ccc1Nc1c2ccc(Cl)cc2nc2c(OC)cccc12`, the GI50 was 136 nM and the TGI stood at 484 nM.
For `COc1ccc2nc(-c3cc(-c4cc(OC)c(OC)c(OC)c4)n[nH]3)[nH]c2c1`, in that order: 388 nM and 4960 nM.
For the compound `Cc1cc(N2CCCCC2)nc(N(CCCNc2ccnc3cc(Cl)ccc23)Cc2ccco2)n1`, the GI50 was 1720 nM and the TGI stood at 3870 nM.
For `c1ccc(Cn2cc3c(c2-c2ccccc2)CCc2cnoc2-3)cc1`, the GI50 is 2060 nM and the TGI came to 8020 nM.
Turning to `Cn1cc(C2=C(c3cccc4ccccc34)C(=O)NC2=O)c2ccccc21`, the GI50 is 8240 nM and the TGI was over 25000 nM.
For `COc1ccccc1OCC(=O)Nc1sc2c(c1C(N)=O)CCC2`, in that order: over 100000 nM and over 100000 nM.
For the compound `CC[C@@H](C(=O)[C@@H](C)[C@@H](O)[C@H](C)[C@@H]1O[C@@H]([C@@H](CC)C(=O)O)CC[C@@H]1C)C1O[C@]2(C=CC(=O)[C@]3(CC[C@@](C)([C@H]4CC[C@](O)(CC)[C@H](C)O4)O3)O2)[C@H](C)C[C@@H]1C` (stereo partly specified), the GI50 was 85.7 nM and the TGI came to 1960 nM.
The like results for `CC1=C[C@H]2c3c(c(O)c(O)c4oc5c(C)cccc5c(=O)c34)[C@H](c3cc(O)c(O)c4oc5c(C)cccc5c(=O)c34)[C@H]2C(C)(C)C1` were, in that order, 2620 nM and 7860 nM.
For `CCCN(CCC)C(=O)C1=Cc2ccc(-c3ccc(C(=O)N4CCCC4)cc3)cc2N=C(N)C1`, in that order: 2560 nM and 11800 nM.
As to `O=c1cc(-c2ccccc2)[nH]c2cc(F)c(F)cc12`, the GI50 is 384 nM and the TGI was over 100000 nM.
For `N#C/C(=C\c1ccc(-c2ccc(Cl)cc2)o1)C(=O)Nc1ncc(Cc2ccc(Cl)cc2)s1`, in that order: 2380 nM and 6490 nM.
The like results for `C[n+]1c(/C=C\c2ccc(Cl)cc2)ccc2ccccc21` were, in that order, 2360 nM and 8370 nM.
